Source: patent US20260327240A1, “1,4-CINEOLE DERIVATIVE AND INTERMEDIATE THEREOF, HERBICIDE CONTAINING SAID DERIVATIVE AS ACTIVE INGREDIENT, METHOD FOR USING HERBICIDE, AND METHOD FOR PREPARING AGROCHEMICAL COMPOSITION” (HOKKO CHEMICAL INDUSTRY CO., LTD., priority 2023, published 2026)

Legend:
Format in all cases: in vivo
[1] = tested on: Lindemia pyxidaria; test: Test Example 2: herbicidal effect test by application during growth period of paddy rice; conditions: 7 days after sowing, 120 g per 10 ares, 14 days after application, read-out: weed inhibition rate
Method: (§1) Herbicidal Effect Test by Application During Growth Period of Paddy Rice
(§2) Wagner pots with an area of 1/10,000 […] were filled with paddy soil, followed by addition of water and incorporation of chemical fertilizer (N:P:K=16:16:16), after which puddling was performed. After that, seeds of Echinochloa crus-galli var. formosensis, broad-leaved weeds (Lindemia pyxidaria, and Monochoria vaginalis), and Scirpus juncoides were sown at a depth of 0 cm to 1 cm, 30 seeds each. Immediately after sowing, the pots were flooded and a water depth of approximately 3 cm was maintained. Subsequent management was conducted in a glass greenhouse. Seven days after sowing, an emulsifiable concentrate prepared according to Formulation Example 5 using the compound shown below was diluted with water, and a specified amount of the diluted solution was applied by dropper. The amount of the active ingredient to be applied was equivalent to 120 g per 10 ares. The test was conducted in duplicate for each chemical concentration group, and the herbicidal effect was evaluated 14 days after chemical application using the same criteria as in Test Example 1.

[2] = tested on: Echinochloa crus-galli; test: Test Example 4: herbicidal effect test by stem and leaf treatment in upland field; conditions: 7 days after sowing, 120 g per 10 ares, 14 days after application; for inhibition at 1200 g/ha: Echinochloa crus-galli, read-out: weed inhibition rate
Method: (§3) Herbicidal Effect Test by Stem and Leaf Treatment in Upland Field
(§4) Pots with an area of 36 cm^2 were filled with upland soil (alluvial loam), twenty seeds each of weeds of Digitaria ciliaris, Echinochloa crus-galli, Chenopodium album, and Amaranthus viridis were uniformly mixed with the top 1 cm layer of soil and the surface was lightly pressed down. Seven days after sowing, an emulsifiable concentrate prepared according to Formulation Example 5 using the compound shown below was diluted with water, and the diluted solution was sprayed onto the soil surface at a rate of 100 liters per 10 ares. The amount of the active ingredient to be applied was equivalent to 120 g per 10 ares. Fourteen days after chemical application, the herbicidal effect was evaluated according to the same criteria as in Test Example 1.

[3] = tested on: Digitaria ciliaris; test: as above; conditions: 7 days after sowing, 120 g per 10 ares, 14 days after application; for inhibition at 1200 g/ha: Digitaria ciliaris, read-out: weed inhibition rate
Method: as §3, §4

[4] = tested on: Echinochloa crus-galli var. formosensis; test: Test Example 1: herbicidal effect test by soil application in paddy rice; conditions: 120 g per 10 ares, 14 days after application; for inhibition at 1200 g/ha: Echinochloa crus-galli, 336 h, read-out: weed inhibition rate
Method: (§5) Herbicidal Effect Test by Soil Application in Paddy Rice
as §2, with “(Lindernia pyxidaria” for “(Lindemia pyxidaria,”, “Immediately thereafter,” for “Seven days after sowing,”, “ares.” for “ares. The test was conducted in duplicate for each chemical concentration group, and the herbicidal effect was evaluated 14 days after chemical application using the same criteria as in Test Example 1.”
(§6) The present test was conducted in duplicate for each chemical concentration group, and the weed inhibition rate (%) was determined 14 days after chemical application using the following formula (Math. 1).

[5] = tested on: Scirpus juncoides; test: as above; conditions: 120 g per 10 ares, 14 days after application
Method: as §5
as §2, with “(Lindernia pyxidaria” for “(Lindemia pyxidaria,”, “Immediately thereafter,” for “Seven days after sowing,”, “ares.” for “ares. The test was conducted in duplicate for each chemical concentration group, and the herbicidal effect was evaluated 14 days after chemical application using the same criteria as in Test Example 1.”
as §6

[6] = tested on: Echinochloa crus-galli var. formosensis; test: Test Example 2: herbicidal effect test by application during growth period of paddy rice; conditions: 7 days after sowing, 120 g per 10 ares, 14 days after application; for inhibition at 1200 g/ha: Echinochloa crus-galli, read-out: weed inhibition rate
Method: as §1, §2

[7] = tested on: Scirpus juncoides; test: as above; conditions: 7 days after sowing, 120 g per 10 ares, 14 days after application
Method: as §1, §2

[8] = tested on: Echinochloa crus-galli; test: Test Example 3: herbicidal effect test by soil application in upland field; conditions: 1 day after sowing, 120 g per 10 ares, 14 days after application; for inhibition at 1200 g/ha: Echinochloa crus-galli, read-out: weed inhibition rate
Method: (§7) Herbicidal Effect Test by Soil Application in Upland Field
as §4, with “One day” for “Seven days”

[9] = tested on: Digitaria ciliaris; test: as above; conditions: 1 day after sowing, 120 g per 10 ares, 14 days after application; for inhibition at 1200 g/ha: Digitaria ciliaris, read-out: weed inhibition rate
Method: as §7
as §4, with “One day” for “Seven days”

Q: Which inhibition at 1200 g/ha [1] does the source give for Cc1ccccc1CO[C@@H]1C[C@]2(C(C)C)O[C@@]1(C)C[C@@H]2F [1-2, (1R,2S,4S,5R)-2-fluoro-1-isopropyl-4-methyl-5-((2-methylbenzyl)oxy)-7-oxabicyclo[2.2.1]heptane] here?
A: ≥ 80%

Q: For CC(C)[C@]12C[C@@H](OCc3ccccc3F)[C@](C)(C[C@@H]1Br)O2 [1-19, (1S,2R,4R,5S)-5-bromo-2-[(2-fluorophenyl)methoxy]-1-methyl-4-isopropyl-7-oxabicyclo[2.2.1]heptane], which inhibition at 1200 g/ha [1] is on record?
A: ≥ 80%

Q: Which results are given for CC(=O)O[C@H]1C[C@]2(C)O[C@@]1(C(C)C)C[C@H]2OCc1ccccc1F [1-480, [(1R,2S,4S,5R)-5-[(2-fluorophenyl)methoxy]-4-methyl-1-isopropyl-7-oxabicyclo[2.2.1]heptan-2-yl]acetate]?
A: weed inhibition rate [2]: ≥ 80%; weed inhibition rate [3]: ≥ 80%; weed inhibition rate [4]: ≥ 80%; weed inhibition rate [5]: ≥ 80%; weed inhibition rate [6]: ≥ 80%; weed inhibition rate [7]: ≥ 80%; weed inhibition rate [8]: ≥ 80%; weed inhibition rate [9]: ≥ 80%

Q: How did the inhibition at 1200 g/ha [1] turn out when CC(C)=CCO[C@@H]1C[C@]2(C(C)C)O[C@@]1(C)C[C@@H]2Br [1-672, (1S,2R,4R,5S)-5-bromo-1-methyl-2-(3-methylbut-2-enoxy)-4-isopropyl-7-oxabicyclo[2.2.1]heptane] was run?
A: ≥ 80%

Q: Which results are given for CC(C)[C@]12C[C@@H](OCc3cccc(C(F)(F)F)c3)[C@](C)(C[C@@H]1Br)O2 [1-701, (1S,2R,4R,5S)-5-bromo-1-methyl-4-isopropyl-2-[[3-(trifluoromethyl)phenyl]methoxy]-7-oxabicyclo[2.2.1]heptane]?
A: inhibition at 1200 g/ha [2]: ≥ 80%; inhibition at 1200 g/ha [3]: ≥ 80%; inhibition at 1200 g/ha [4]: ≥ 80%; inhibition at 1200 g/ha [6]: ≥ 80%; inhibition at 1200 g/ha [8]: ≥ 80%; inhibition at 1200 g/ha [9]: ≥ 80%

Q: CC(C)[C@]12C[C@@H](OCc3ccccc3C#N)[C@](C)(C[C@@H]1Br)O2 [1-703, 2-[[(1S,2R,4R,5S)-5-bromo-1-methyl-4-isopropyl-7-oxabicyclo[2.2.1]heptan-2-yl]oxymethyl]benzonitrile] was tested. Which inhibition at 1200 g/ha [1] did it give?
A: ≥ 80%

Q: Which inhibition at 1200 g/ha [1] does the source give for CC(C)[C@]12C[C@@H](OCc3ccccc3F)[C@](C)(C[C@H]1OCC1CC1)O2 [1-921, (1S,2R,4R,5R)-5-(cyclopropylmethoxy)-2-[(2-fluorophenyl)methoxy]-1-methyl-4-isopropyl-7-oxabicyclo[2.2.1]heptane] here?
A: ≥ 80%

Q: How did the inhibition at 1200 g/ha [1] turn out when C=CCO[C@@H]1C[C@]2(C)O[C@@]1(C(C)C)C[C@H]2OCc1ccccc1F [1-930, (1S,2R,4R,5R)-2-[(2-fluorophenyl)methoxy]-1-methyl-4-isopropyl-5-prop-2-enoxy-7-oxabicyclo[2.2.1]heptane] was run?
A: ≥ 80%

Q: For C#CCO[C@@H]1C[C@]2(C)O[C@@]1(C(C)C)C[C@H]2OCc1ccccc1F [1-931, (1S,2R,4R,5R)-2-[(2-fluorophenyl)methoxy]-1-methyl-4-isopropyl-5-prop-2-ynoxy-7-oxabicyclo[2.2.1]heptane], which inhibition at 1200 g/ha [1] is on record?
A: ≥ 80%

Q: For COC1(OC)C[C@]2(C)O[C@@]1(C(C)C)C[C@H]2OCc1ccccc1F [1-935, (1R,4S,5R)-5-((2-fluorobenzyl)oxy)-1-isopropyl-2,2-dimethoxy-4-methyl-7-oxabicyclo[2.2.1]heptane], which inhibition at 1200 g/ha [1] is on record?
A: ≥ 80%

Q: Which inhibition at 1200 g/ha [2] does the source give for CC(C)[C@]12C[C@@H](OCc3ccccc3F)[C@](C)(C[C@@H]1OCc1ccccc1)O2 [1-1606, (1S,2R,4R,5S)-2-[(2-fluorophenyl)methoxy]-1-methyl-5-phenylmethoxy-4-isopropyl-7-oxabicyclo[2.2.1]heptane] here?
A: ≥ 80%

Q: And the inhibition at 1200 g/ha [3]?
A: ≥ 80%

Q: What about the inhibition at 1200 g/ha [4] of the same compound?
A: ≥ 80%

Q: What about the inhibition at 1200 g/ha [6] of the same compound?
A: ≥ 80%

Q: What about the inhibition at 1200 g/ha [8] of the same compound?
A: ≥ 80%

Q: And the inhibition at 1200 g/ha [9]?
A: ≥ 80%

Q: Cc1ccccc1CO[C@@H]1C[C@]2(C(C)C)O[C@@]1(C)CC2=O [2-3, (1R,4S,5R)-1-isopropyl-4-methyl-5-((2-methylbenzyl)oxy)-7-oxabicyclo[2.2.1]heptan-2-one] was tested. Which inhibition at 1200 g/ha [1] did it give?
A: ≥ 80%

Q: With Cc1cccc(C)c1CO[C@@H]1C[C@]2(C(C)C)O[C@@]1(C)CC2=O [2-5, (1R,4S,5R)-5-((2,6-dimethylbenzyl)oxy)-1-isopropyl-4-methyl-7-oxabicyclo[2.2.1]heptan-2-one] as the compound, how does the inhibition at 1200 g/ha [1] read?
A: ≥ 80%

Q: Which inhibition at 1200 g/ha [1] does the source give for CC(C)[C@]12C[C@@H](OCc3ccccc3Cl)[C@](C)(CC1=O)O2 [2-11, (1R,4S,5R)-5-((2-chlorobenzyl)oxy)-1-isopropyl-4-methyl-7-oxabicyclo[2.2.1]heptan-2-one] here?
A: ≥ 80%

Q: How did the inhibition at 1200 g/ha [1] turn out when CC(C)[C@]12C[C@@H](OCc3c(F)cccc3F)[C@](C)(CC1=O)O2 [2-20, (1R,4S,5R)-5-((2,6-difluorobenzyl)oxy)-1-isopropyl-4-methyl-7-oxabicyclo[2.2.1]heptan-2-one] was run?
A: ≥ 80%

Q: For C=C1C[C@]2(C)O[C@@]1(C(C)C)C[C@H]2OCc1ccccc1C [2-72, (1R,4S,5R)-1-isopropyl-4-methyl-5-((2-methylbenzyl)oxy)-2-methylene-7-oxabicyclo[2.2.1]heptane], which inhibition at 1200 g/ha [1] is on record?
A: ≥ 80%

Q: How did the inhibition at 1200 g/ha [1] turn out when C=C1C[C@]2(C)O[C@@]1(C(C)C)C[C@H]2OCc1ccccc1F [2-88, (1R,4S,5R)-5-((2-fluorobenzyl)oxy)-1-isopropyl-4-methyl-2-methylene-7-oxabicyclo[2.2.1]heptane] was run?
A: ≥ 80%

Q: How did the inhibition at 1200 g/ha [1] turn out when CC(C)[C@]12C[C@@H](OCc3ccc(F)cc3)[C@](C)(CC1=O)O2 [2-349, (1R,4S,5R)-5-((4-fluorobenzyl)oxy)-1-isopropyl-4-methyl-7-oxabicyclo[2.2.1]heptan-2-one] was run?
A: ≥ 80%

Q: With CC(C)[C@]12C[C@@H](OCc3cccc(F)c3)[C@](C)(CC1=O)O2 [2-351, (1R,4S,5R)-5-((3-fluorobenzyl)oxy)-1-isopropyl-4-methyl-7-oxabicyclo[2.2.1]heptan-2-one] as the compound, how does the inhibition at 1200 g/ha [1] read?
A: ≥ 80%

Q: Cc1cccc(CO[C@@H]2C[C@]3(C(C)C)O[C@@]2(C)CC3=O)c1 [2-352, (1R,4S,5R)-1-isopropyl-4-methyl-5-((3-methylbenzyl)oxy)-7-oxabicyclo[2.2.1]heptan-2-one] was tested. Which inhibition at 1200 g/ha [1] did it give?
A: ≥ 80%

Q: How did the inhibition at 1200 g/ha [1] turn out when CC(C)[C@]12C=C[C@](C)(O1)[C@H](OCc1ccccc1F)C2 [3-5, (1R,4S,5R)-5-[(2-fluorophenyl)methoxy]-4-methyl-1-isopropyl-7-oxabicyclo[2.2.1]hept-2-ene] was run?
A: ≥ 80%
